Measured values taken from US3931262A, “Hydrophilic and difficultly volatile biocidal triorganotin compounds” (priority 1972, dated 1976).

Key:
Solubility in water = type: physicochemical; conditions: for Solubility in water (in words): Table 1 and text
From the text: Solubility properties of tributyltin derivatives [formula]

[1] = tested on: Alternaria tenuis CBS 10426; assay: Microbiological test; type: cell-based
From the text: (§1) In the test for microbiocidal activity the compounds listed hereinbelow yielded the values indicated in the following Table: No. Compound __________________________________________________________________________ 1 (n--C4 H9)3 Sn--S--CH2 --CH2 --COO.(CH 2 --CH2 --O--n H(n~9) 2 (C6 H5)3 Sn--S--(CH2)3 --SO3.Na CH3 .vertline. 3 --Sn--S--CH2 --CH2 --COO--(CH2 --CH2 --O)n.H(n ~9) .vertline. CH3 4 (n--C4 H9)3 Sn--S--CH2 --COO.H.N(CH2 CH2 OH)3 5 (n--C4 H9)3 Sn--S--(CH2)2 --COO.H.N(CH2 CH2 OH)3 6 (n--C4 H9)3 Sn--S--CH2 --CO.N(CH2 CH2 OH)2 __________________________________________________________________________

[2] = tested on: Arizona paracolon 7:1.7,8; assay: Microbiological test; type: cell-based
From the text: as §1

[3] = tested on: Aspergillus flavus CBS 12662; assay: Microbiological test; type: cell-based
From the text: as §1

[4] = tested on: Aspergillus niger ATCC 6275; assay: Microbiological test; type: cell-based
From the text: as §1

[5] = tested on: Bacillus subtilis NCTC 6460; assay: Microbiological test; type: cell-based
From the text: as §1

Candida albicans CBS = assay: Microbiological test; type: cell-based
From the text: as §1

[6] = tested on: Chaetomium globosum CBS 14851; assay: Microbiological test; type: cell-based
From the text: as §1

Coniphora cerebella CBS = assay: Microbiological test; type: cell-based
From the text: as §1

[7] = tested on: Corynebacterium diphteroides FUR; assay: Microbiological test; type: cell-based
From the text: as §1

[8] = tested on: Escherichia coli NCTC 8195; assay: Microbiological test; type: cell-based
From the text: as §1

[9] = tested on: Escherichia coli RP 45410; assay: Microbiological test; type: cell-based
From the text: as §1

Fusarium oxysporum CBS = assay: Microbiological test; type: cell-based
From the text: as §1

Fusarium spec. DAP = assay: Microbiological test; type: cell-based
From the text: as §1

Hefe DAP = assay: Microbiological test; type: cell-based
From the text: as §1

Hefe rot DAP = assay: Microbiological test; type: cell-based
From the text: as §1

Lenzites abietina CBS = assay: Microbiological test; type: cell-based
From the text: as §1

[10] = tested on: Mycobacterium phlei CITM 61; assay: Microbiological test; type: cell-based
From the text: as §1

Paecilomyces varioti CBS = assay: Microbiological test; type: cell-based
From the text: as §1

[11] = tested on: Pasteurella multocida K753; assay: Microbiological test; type: cell-based
From the text: as §1

[12] = tested on: Penicillium expansum SMC 36; assay: Microbiological test; type: cell-based
From the text: as §1

[13] = tested on: Penicillium funiculosum CEB 329631; assay: Microbiological test; type: cell-based
From the text: as §1

Pilz schwarzlich DAP = assay: Microbiological test; type: cell-based
From the text: as §1

[14] = tested on: Polystictus versicolor EMPA61; assay: Microbiological test; type: cell-based
From the text: as §1

Poria vaporia CBS = assay: Microbiological test; type: cell-based
From the text: as §1

[15] = tested on: Pseudomonas fluorescens NCTC 4755; assay: Microbiological test; type: cell-based
From the text: as §1

[16] = tested on: Pullularia pullulans CBS 10767; assay: Microbiological test; type: cell-based
From the text: as §1

[17] = tested on: Salmonella gallinarum VBIB; assay: Microbiological test; type: cell-based
From the text: as §1

Salmonella pullorum VBIZ = assay: Microbiological test; type: cell-based
From the text: as §1

Sarcina ureae SMB 81 = assay: Microbiological test; type: cell-based
From the text: as §1

[18] = tested on: Stachybotrys atra CBS 32465; assay: Microbiological test; type: cell-based
From the text: as §1

[19] = tested on: Staphylococcus aureus SG 511 M6; assay: Microbiological test; type: cell-based
From the text: as §1

[20] = tested on: Staphylococcus aureus SG 511; assay: Microbiological test; type: cell-based
From the text: as §1

[21] = tested on: Streptococcus agalactiae M100; assay: Microbiological test; type: cell-based
From the text: as §1

[22] = tested on: Streptococcus faecalis NCTC 8619; assay: Microbiological test; type: cell-based
From the text: as §1

[23] = tested on: Trichoderma viride CEB 3334.2; assay: Microbiological test; type: cell-based
From the text: as §1

Trichophyton gypseum CBS = assay: Microbiological test; type: cell-based
From the text: as §1

[24] = tested on: Salmonella cholerae-suis VBIB; type: cell-based

Row | Structure (SMILES) | Activity range [1] | Activity range [2] | Activity range [3] | Activity range [4] | Activity range [5] | Activity range (Candida albicans CBS) | Activity range [6] | Activity range (Coniphora cerebella CBS) | Activity range [7] | Activity range [8] | Activity range [9] | Activity range (Fusarium oxysporum CBS) | Activity range (Lenzites abietina CBS) | Activity range [10] | Activity range (Paecilomyces varioti CBS) | Activity range [11] | Activity range [12] | Activity range [13] | Activity range [14] | Activity range (Poria vaporia CBS) | other results
1 | CCC[CH2][Sn]([CH2]CCC)([CH2]CCC)[S]CC(O)CO (stereo not shown) [--CH2 --CH--CH2] |  |  |  |  |  |  |  |  |  |  |  |  |  |  |  |  |  |  |  |  | Solubility in water (in words) (Solubility in water): satisfactory
2 | O=S(=O)([O-])CCC[S][Sn]([c]1ccccc1)([c]1ccccc1)[c]1ccccc1.[Na+] [Compound 2, sodium S-triphenyl tin-γ-mercaptopropanesulphonate] | 10 ppm | > 300 ppm | 30 ppm | 30 ppm | 3 ppm | 30 ppm | 10 ppm | 30 ppm | 3 ppm | 30 ppm | 10 ppm | 10 ppm | 100 ppm | 3 ppm | 10 ppm | > 300 ppm | 30 ppm | 100 ppm | 30 ppm | 3 ppm | Activity range (Fusarium spec. DAP): 30 ppm; Activity range (Hefe DAP): 10 ppm; Activity range (Hefe rot DAP): 10 ppm; Activity range (Pilz schwarzlich DAP): 30 ppm; Activity range [15]: > 300 ppm; Activity range [16]: 3 ppm; Activity range [17]: > 300 ppm; Activity range (Salmonella pullorum VBIZ): > 300 ppm; Activity range (Sarcina ureae SMB 81): 3 ppm; Activity range [18]: 10 ppm; Activity range [19]: 10 ppm; Activity range [20]: 3 ppm; Activity range [21]: 3 ppm; Activity range [22]: 10 ppm; Activity range [23]: 10 ppm; Activity range (Trichophyton gypseum CBS): 30 ppm; Activity range [24]: > 300 ppm
3 | CCC[CH2][Sn]([CH2]CCC)([CH2]CCC)[S]CC(=O)[O-].OCC[NH+](CCO)CCO [Compound 4, triethylammonium S-tri-n-butyl tin-thioglycolate] | 10 ppm | > 300 ppm | 10 ppm | 10 ppm | 30 ppm | 10 ppm | 10 ppm | 10 ppm | 30 ppm | 30 ppm | 30 ppm | 10 ppm | 10 ppm | 30 ppm | 10 ppm | 30 ppm | 10 ppm | 30 ppm | 100 ppm | 10 ppm | Activity range [15]: > 300 ppm; Activity range [16]: 10 ppm; Activity range (Salmonella pullorum VBIZ): > 300 ppm; Activity range (Sarcina ureae SMB 81): 30 ppm; Activity range [18]: 10 ppm; Activity range [19]: 30 ppm; Activity range [20]: 30 ppm; Activity range [21]: 30 ppm; Activity range [22]: 30 ppm; Activity range [23]: 10 ppm; Activity range (Trichophyton gypseum CBS): 10 ppm; Activity range [24]: > 300 ppm
4 | CCC[CH2][Sn]([CH2]CCC)([CH2]CCC)[S]CCC(=O)[O-].OCC[NH+](CCO)CCO [Compound 5, triethanolammonium S-tri-n-butyl tin-β-mercaptopropionate] | ≤ 3 ppm | > 300 ppm | 10 ppm | 10 ppm | 10 ppm | 10 ppm | ≤ 3 ppm | 10 ppm | 10 ppm | > 300 ppm | > 300 ppm | 10 ppm | 10 ppm | 10 ppm | ≤ 3 ppm | 30 ppm | 10 ppm | 10 ppm | 30 ppm | 10 ppm | Activity range [15]: 30 ppm; Activity range [16]: 10 ppm; Activity range (Salmonella pullorum VBIZ): > 300 ppm; Activity range (Sarcina ureae SMB 81): 30 ppm; Activity range [18]: ≤ 3 ppm; Activity range [19]: 30 ppm; Activity range [20]: 10 ppm; Activity range [21]: 30 ppm; Activity range [22]: 100 ppm; Activity range [23]: 10 ppm; Activity range (Trichophyton gypseum CBS): 10 ppm; Activity range [24]: > 300 ppm
5 | CCC[CH2][Sn]([CH2]CCC)([CH2]CCC)[S]CC(=O)N(CCO)CCO [Compound 6, S-tri-n-butyl tin-thioglycolic acid diethanolamide] | ≤ 3 ppm | > 300 ppm | 10 ppm | 10 ppm | ≤ 1 ppm | 10 ppm | ≤ 3 ppm | 10 ppm | ≤ 1 ppm | 30 ppm | 30 ppm | 10 ppm | 10 ppm | ≤ 1 ppm | ≤ 3 ppm | 30 ppm | 10 ppm | 30 ppm | 30 ppm | 10 ppm | Activity range [15]: 30 ppm; Activity range [16]: 10 ppm; Activity range (Salmonella pullorum VBIZ): > 300 ppm; Activity range (Sarcina ureae SMB 81): ≤ 1 ppm; Activity range [18]: ≤ 3 ppm; Activity range [19]: 3 ppm; Activity range [20]: 30 ppm; Activity range [21]: 3 ppm; Activity range [22]: 30 ppm; Activity range [23]: 10 ppm; Activity range (Trichophyton gypseum CBS): 10 ppm; Activity range [24]: > 300 ppm
6 | CCC[CH2][Sn]([CH2]CCC)([CH2]CCC)[O][Sn]([CH2]CCC)([CH2]CCC)[CH2]CCC [TBTO, bis-(tri-n-butyltin)-oxide] |  |  |  |  |  |  |  |  |  |  |  |  |  |  |  |  |  |  |  |  | Solubility in water (Solubility in water; Table 1, comparison): 20 ppm; Solubility in water (in words) (Solubility in water): poor
